Measurements published in patent US20090156467A1, “Thymic stromal lymphpoietin promoter and use therefor” (priority 2004, published 2009).

Assays:
[1] = test system: TA-Luc (control construct); test: TA-Luc control construct transient transfection luciferase reporter assay in LAD 2 cells; format: cell-based, human; settings: A23187 500 ng/ml alone
Source text: (§1) A calcium ionophore alone was also able to stimulate TSLP promoter activity.

[2] = test system: TSLP promoter (TSLP-Luc construct); test: TSLP-Luc transient transfection luciferase reporter assay in LAD 2 cells; format: cell-based, human; settings: A23187 500 ng/ml alone
Source text: as §1

## CNc1ccc2oc(C[C@H]3O[C@@]4(CC[C@H]3C)O[C@H]([C@H](C)C(=O)c3ccc[nH]3)[C@H](C)C[C@H]4C)nc2c1C(=O)O [A23187]
[1]
  F/R luciferase activity, control construct TA-Luc: 29.6 units of F/R luciferase activity
[2]
  F/R luciferase activity, TSLP-Luc construct: 171.0 units of F/R luciferase activity
